Common to all, as to assay type: cell-based
One data set deals with Erythrocyte. As to the kind of experiment: Erythrocyte lysis (haemolysis) assay. The settings on record: fusion not cleaved. The text has this: FIG. 18: Top Panel-SDS-PAGE of purified GFP-LLO and LLO used in erythrocyte lysis assay. Left: Stained gel. Right: Fluorescent image of GFP-LLO and GFP, L: Ladder (NEB ladder #P7712), 1: Uncut GFP-LLO, 2: Cleaved, IMAS purified and desalted LLO. A: GFP-LLO, B: LLO. Bottom Panel-Erythrocyte haemolysis following GFP-LLO exposure at varying pH. Relative haemoglobin absorbance was collected at 540 nm, values expressed as percentage of positive control, mean±SEM (n=3), Analysis via t-test concluded *=p<0.001, ***=p<0.0001 vs Untreated.

Data set [1] has as its system Listeria monocytogenes EDG-e. As to the kind of experiment: Antilisterial activity, spot plate and SDS-PAGE agar overlay. Here is the method: While the respective bacteriocins were fused to GFP and produced a fluorescent complex, it was important to determine that antimicrobial activity was due to the liberated bacteriocin. Antimicrobial activity of plantaricin 423 and mundticin ST4SA was assessed against Listeria monocytogenes EDG-e grown on Brain Heart Infusion media (BHI) containing […] chloramphenicol. The spot plate method was performed on solid medium (1% w/v agar) seeded with Listeria monocytogenes EDG-e. SDS-PAGE separations were assayed for activity by casting the polyacrylamide gel in an agar bilayer seeded with Listeria monocytogenes EDG-e. Before casting, the poly acrylamide gels were fixed for 20 min in a 25% isopropanol, 10% acetic acid fixing solution and then rinsed 3×15 min with sterile ultra-pure water.
Cleavage parameters were optimized using a modified method from that supplied by the manufacturer. The WELQut-to-Sample ratios were set to 1:100, 1:50, 1:25, 1:5 (v/v) for 50 μL samples of GFP-PlaX and GFP-MunX, respectively, and diluted to a final volume of 250 μL in WELQut cut buffer. The approximate corresponding units of WELQ to 466.5 μg of GFP-PlaX was 2.5 U, 5 U, 10 U and 50 U respectively. The approximate corresponding units of WELQ to 547.5 μg of GFP-MunX was 2.5 U, 5 U, 10 U and 50 U respectively. Cleavage reactions were incubated at 28° C., and 50 μL samples were collected at 2 h, 4 h, 8 h, and 16 h, respectively. Cleavage was assessed by the spot plate method using BHI solid medium (1% w/v agar) seeded with Listeria monocytogenes EGD-e.
Mundticin ST4SA and plantaricin 423 were cleaved from one millilitre of His-tag purified GFP-MunX and GFP-PlaX, respectively, under optimal cleavage conditions. Cleavage reactions were purified using high performance liquid chromatography (HPLC), single peaks were spot tested for antilisterial activity.

The subject of a further data set is Lactobacillus sakei. As to the kind of experiment: Antimicrobial activity (clear zones on plates) against Lactobacillus sakei. Here is the method:
(§1) For initial antimicrobial efficacy testing, both GFP-fused and non-GFP-fused pLanthipeptides were loaded (GFP-pNisin and GFP-pPep5) and cleaved directly in wells with trypsin (5 μg/mL for GFPpNisin) or thrombin (3 U/100 μL for GFP-pPep5). Antimicrobial activity was evaluated against Lactobacillus sakei for nisin and against S. carnosus for GFP-pPep5. Plates were incubated at 30° C. overnight until visible clear zones were observed. Lactobacillus sakei was cultured in MRS broth or agar and S. carnosus was cultured in Mueller Hinton Broth or agar.
(§2) GFP-pLanthipeptides were cleaved at 37° C. for 4 h and 20 h, with thrombin or hNisP. Heterologously expressed hNisP was added to concentrations of 0.01 ng/μL, 5 ng/μL, 10 ng/μL, 50 ng/μL and 70 ng/μL. Thrombin was added at 0.75 U, 4.5 U, 3 U and 6 U. Cleavage reactions were performed in 100 μL reactions and protein concentrations of GFP-pLanthipeptides were adjusted to final concentrations of 1 mg/ml with the exception of GFP-pPep5Th which was adjusted to 0.9 mg/mL. Cleavage reactions were stopped by the addition of protease inhibitors. Antimicrobial activity was evaluated against Lb. sakei and S. carnosus for GFP-pNisin (30 μL) and GFP-pPep5 (80 μL), respectively. Plates were incubated at 30° C. overnight until visible clear zones were observed. Samples were separated using SDS-PAGE.

The test system of the next data set is S. carnosus. As to the kind of experiment: Antimicrobial activity (clear zones on plates) against S. carnosus. The settings on record: thrombin and hNisP, 4 h and 20 h cleavage. As for the experimental part: as §1, §2
Setting [2] is: after cleavage / liberation of the core peptide, expression at 26° C.

Where no end group is shown, it is not given here.

Consider GFP-LLO, for which the “Activity of LLO while fused to fluorescent partner” value in the data set on Erythrocyte is “still has activity”.
For the substance “GFP-MunX: GFP fused to mature mundticin ST4SA with WELQut cleavage site (SEQ ID NO:32)”, the “Antilisterial activity at the band location” value in data set [1] (SDS-PAGE gel overlay after WELQut cleavage, zone at the size/location of the named species) is recorded as “zones of antilisterial activity”. The Antilisterial activity entry is recorded as “clear zones” in data set [1] (WELQut cleaved samples, SDS-PAGE gel overlay) and “did not show antilisterial activity” in data set [1] (uncleaved fusion protein, spot plate). In data set [1] (cleaved fusion protein, compared with the other GFP-bacteriocin), the Specific activity entry is on record as “higher specific activity”.
“GFP-pNisin: N-terminal His tagged GFP with WELQut site fused to precursor nisin (SEQ ID NO:28/30)”: the Antimicrobial activity entry is “highest activity” with Lactobacillus sakei (setting [2]); “activity was detected” in the data set with Lactobacillus sakei (after cleavage with trypsin, expression at a range of temperatures, induction times and IPTG concentrations); “absent” with Lactobacillus sakei (uncleaved sample).
Take “HispNisin: His-tagged precursor nisin, no fluorescent fusion (MSTKDFNLDLVSVSKKDSGASPRITSISLCTPGCKTGALMGCNMKTATCHCSIHVSK; cysteine pairing not given here; also: His tag, not shown in chain; UniProt P13068 1-57, looked up)”: the Antimicrobial activity result in the data set with Lactobacillus sakei (setting [2]) is on record as “decrease”; in the data set on Lactobacillus sakei (after cleavage with trypsin, expression at 18° C., soluble and insoluble fractions) it was “highest activity”; in the data set with Lactobacillus sakei (after cleavage with trypsin, expression at 37° C.) it was “substantial loss in activity”.
On to “Pep5: lanthipeptide liberated from GFP-pPep5 by thrombin or hNisP (TAGPAIRASVKQCQKTLKATRLFTVSCKGKNGCK; also: lanthipeptide (lantibiotic) thioether rings, not placed; UniProt P19578 27-60, looked up)”, for which, in the data set on S. carnosus, the “Effect on antimicrobial activity of increasing concentration and cleavage time” value is on record as “detrimental effect”.

(Values after patent publication US12173344B2, “Fluorescent fusion based heterologous peptide production” (Stellenbosch University, priority 2020, dated 2024).)
